ChEMBL document CHEMBL1201862, “PubChem BioAssay data set” (2004)
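A five-concentration, 48-hour dose response in 96-well plates underlies each endpoint, interpolated linearly between surrounding concentrations. At the GI50, growth is halved.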 Calls of active or inactive are those of the source. Rule as the data show it: active = GI50 up to about 1.1 µM and inactive = higher.

Tests used:
Assay in all cases: inhibition of tumour cell growth, NCI panel, 48 h
COLO 205 = test system: COLO 205
DLD-1 = test system: DLD-1
EKVX = test system: EKVX
HCC 2998 = test system: HCC 2998
HOP-18 = test system: HOP-18
LXFL 529 = test system: LXFL 529
M19-MEL = test system: M19-MEL
OVCAR-5 = test system: OVCAR-5
OVCAR-8 = test system: OVCAR-8
SF-268 = test system: SF-268
SN12C = test system: SN12C
TK-10 = test system: TK-10
DMS-273 = test system: DMS-273
KM-20L2 = test system: KM-20L2
OVCAR-3 = test system: OVCAR-3
BT-549 = test system: BT-549
MCF7 = test system: MCF7
MDA-N = test system: MDA-N
NCI/ADR-RES = test system: NCI/ADR-RES
T47D = test system: T47D

| SMILES | GI50 (COLO 205) | GI50 (DLD-1) | GI50 (EKVX) | GI50 (HCC 2998) | GI50 (HOP-18) | GI50 (LXFL 529) | GI50 (M19-MEL) | GI50 (OVCAR-5) | GI50 (OVCAR-8) | GI50 (SF-268) | GI50 (SN12C) | GI50 (TK-10) | GI50 (DMS-273) | GI50 (KM-20L2) | GI50 (OVCAR-3) | GI50 (BT-549) | GI50 (MCF7) | GI50 (MDA-N) | GI50 (NCI/ADR-RES) | GI50 (T47D) |
| --- | --- | --- | --- | --- | --- | --- | --- | --- | --- | --- | --- | --- | --- | --- | --- | --- | --- | --- | --- | --- |
| COc1ccc(/C(=N/O)C(c2ccc(OC)cc2)C2C(=O)Oc3ccccc32)cc1 (stereo not drawn) | 1.66 µM (inactive) | 83.4 µM (inactive) | 53.1 µM (inactive) | > 100 µM (inactive) | > 100 µM (inactive) | 36.3 µM (inactive) | 68.5 µM (inactive) | 12.7 µM (inactive) | 61.7 µM (inactive) | > 100 µM (inactive) | 84.7 µM (inactive) | > 100 µM (inactive) | – | – | – | – | – | – | – | – |
| Cn1nc2ccc3nccc(NCCNCCCl)c3c2n1 | > 100 µM (inactive) | > 100 µM (inactive) | > 100 µM (inactive) | > 100 µM (inactive) | – | > 100 µM (inactive) | > 100 µM (inactive) | > 100 µM (inactive) | > 100 µM (inactive) | > 100 µM (inactive) | > 100 µM (inactive) | > 100 µM (inactive) | > 100 µM (inactive) | > 100 µM (inactive) | > 100 µM (inactive) | – | – | – | – | – |
| CCCN(CCCCC(NC(C)=O)C(=O)NCc1ccccc1)C(=O)NC (stereo not drawn) | > 100 µM (inactive) | > 100 µM (inactive) | > 100 µM (inactive) | > 100 µM (inactive) | – | > 100 µM (inactive) | > 100 µM (inactive) | > 100 µM (inactive) | > 100 µM (inactive) | > 100 µM (inactive) | > 100 µM (inactive) | > 100 µM (inactive) | > 100 µM (inactive) | > 100 µM (inactive) | > 100 µM (inactive) | – | – | – | – | – |
| NNC(=O)N/N=C(/CC1(O)C(=O)Nc2ccc(Br)cc21)c1ccccc1 (stereo not drawn) | – | 35.9 µM (inactive) | 22.7 µM (inactive) | – | – | 23.4 µM (inactive) | 32.4 µM (inactive) | – | – | 21.5 µM (inactive) | 29.2 µM (inactive) | 55.6 µM (inactive) | 28.4 µM (inactive) | 27.9 µM (inactive) | 41.8 µM (inactive) | – | – | – | – | – |
| Brc1ccc2c(-c3csc(-c4c[nH]c5cc(Br)ccc45)n3)c[nH]c2c1 | 26.8 µM (inactive) | – | 35.3 µM (inactive) | 43.8 µM (inactive) | – | – | – | 26.6 µM (inactive) | 21 µM (inactive) | 31.2 µM (inactive) | 37 µM (inactive) | 30.8 µM (inactive) | – | – | 52.1 µM (inactive) | > 64.1 µM (inactive) | 11.8 µM (inactive) | 5.43 µM (inactive) | 16 µM (inactive) | 20.2 µM (inactive) |
| COc1ccc(/C=N/NC(=O)c2ccccc2Nc2ccccc2C(=O)N/N=C/c2ccc(OC)cc2)cc1 | > 100 µM (inactive) | – | > 100 µM (inactive) | > 100 µM (inactive) | – | – | – | > 100 µM (inactive) | > 100 µM (inactive) | > 100 µM (inactive) | > 100 µM (inactive) | > 100 µM (inactive) | – | – | > 100 µM (inactive) | > 100 µM (inactive) | > 100 µM (inactive) | > 100 µM (inactive) | > 100 µM (inactive) | > 100 µM (inactive) |
| CSC(=S)N/N=C(\C)c1cccc(C)n1 | 0.0513 µM (active) | – | 1.16 µM (inactive) | 3.17 µM (inactive) | – | – | – | 5.77 µM (inactive) | 0.769 µM (active) | 0.708 µM (active) | 1.28 µM (inactive) | 0.975 µM (active) | – | – | 0.0568 µM (active) | 5.19 µM (inactive) | 0.128 µM (active) | 0.925 µM (active) | 1.36 µM (inactive) | 2.46 µM (inactive) |
| O=C1Nc2c(Cl)cccc2/C1=N/Nc1ccccc1[N+](=O)[O-] | 81.3 µM (inactive) | – | 3.51 µM (inactive) | 32.7 µM (inactive) | – | – | – | 50.7 µM (inactive) | 12.4 µM (inactive) | 11.4 µM (inactive) | 28.9 µM (inactive) | 11.5 µM (inactive) | – | – | 44.4 µM (inactive) | 28 µM (inactive) | 14.7 µM (inactive) | 25.6 µM (inactive) | 11.5 µM (inactive) | 22.2 µM (inactive) |
| COc1cc2ccc1-c1cc(ccc1O)CC1c3cc4c(cc3CCN1C)Oc1c(OC)cc3c(c1O4)C(C2)N(C)CC3 (stereo not drawn) | – | 2.28 µM (inactive) | 2.1 µM (inactive) | 1.63 µM (inactive) | – | 1.84 µM (inactive) | 1.88 µM (inactive) | 3.4 µM (inactive) | 1.87 µM (inactive) | 1.81 µM (inactive) | 2.08 µM (inactive) | 12.2 µM (inactive) | 1.78 µM (inactive) | 1.46 µM (inactive) | 1.95 µM (inactive) | – | – | – | – | – |
| NS(=O)(=O)c1ccc(NC2(C(=O)O)CCCC2)cc1 | > 100 µM (inactive) | – | > 100 µM (inactive) | > 100 µM (inactive) | – | – | – | > 100 µM (inactive) | > 100 µM (inactive) | > 100 µM (inactive) | > 100 µM (inactive) | > 100 µM (inactive) | – | – | > 100 µM (inactive) | > 100 µM (inactive) | > 100 µM (inactive) | > 100 µM (inactive) | > 100 µM (inactive) | > 100 µM (inactive) |
